Results on 27 molecules are retold here after US7074798B2, “Xanthine derivative and DPPIV inhibitor” (Eisai Co., Ltd, priority 2002, dated 2006).

The structures appear in SMILES notation. Structures can show the parent of a compound that is named as a salt.

The first test relates to male C57BL/6N mouse. As to the kind of experiment: Effect on glucose tolerance of normal mouse (oral glucose loading). Type of test: in vivo. To be noted: 2 h, 0.3 mg/kg oral, 30 min before glucose 2 g/kg, AUC0-120, 0.5% MC = 100%, NVP DPP728 10 mg/kg = 0%, lower = better, read-out: Improvement degree of glucose tolerance. The method, then:
Effect on Glucose Tolerance of Normal Mouse
male C57BL/6N mouse (purchased from CHARLES RIVER JAPAN, INC.)
A suspension of the test compound and NVP DPP728 or 0.5% MC solution (solvent control group) were orally administered at a dose of 10 mL/kg, and after 30 minutes, glucose solution was orally administered at a dose of 10 mL/kg. Glucose was orally administered at a dose of 2 g/kg.
Immediately before the administration of the test substance and NVP DPP728, immediately before the administration of the glucose solution and at 30 minutes, 60 minutes, and 120 minutes after the administration, a tail vein of the mouse was injured to slightly bleed by a razor under no anesthesia. 10 μl of blood was collected and was immediately mixed with 0.6M perchloric acid (140 μl). Glucose in the supernatant obtained by centrifugation (1500 g, 10 minutes, 4° C., refrigerated centrifuge GS-6KR, Beckman Instruments, Inc.) was measured using Glucose CII-Test Wako (Wako Pure Chemical Industries, Ltd.).
Area under the curve of blood glucose level-time (AUC0-120; Area Under the Curve) from the time of administration of glucose to 120 minutes after administration was calculated for respective administration groups, i.e., 0.5% MC solution, NVP DPP728, and the test compounds. Taking the AUC0-120 of the 0.5% MC solution administration group as 100% and the AUC0-120 of NVP DPP728 (10 mg/kg) administration group as 0%, the improvement degree of the glucose tolerance of a test compound was calculated using the following formula: Improvement degree of the glucose tolerance (%)=(AUC0-120 of the test compound−AUC0-120 of the NVP DPP728 (10 mg/kg) administration group)/(AUC0-120 of the 0.5% MC solution administration group−AUC0-120 of the NVP DPP728 (10 mg/kg) administration group)×100. • The lower the % value, the greater the improvement degree of the glucose tolerance will be.
On to `CC#CCn1c(N2CCNCC2)nc2c1c(=O)n(CC(=O)c1ccccc1)c(=O)n2C` [Example 30, 7-(2-Butynyl)-3-methyl-1-(2-oxo-2-phenylethyl)-8-(piperazin-1-yl)-3,7-dihydropurine-2,6-dione trifluoroacetate], for which the response vs control in vivo at 0.3 mg/kg was 49.4%.

The same test, now with this note: 2 h, 1 mg/kg oral, 30 min before glucose 2 g/kg, AUC0-120, 0.5% MC = 100%, NVP DPP728 10 mg/kg = 0%, lower = better, read-out: Improvement degree of glucose tolerance.
Consider `CC#CCn1c(N2CCNCC2)nc2c1c(=O)[nH]c(=O)n2C` [Example 14, 7-(2-Butynyl)-3-methyl-8-(piperazin-1-yl)-3,7-dihydropurine-2,6-dione], for which the response vs control in vivo at 1 mg/kg turned out to be 41.9%.

As to `CC#CCn1c(N2CCNCC2)nc2c1c(=O)n(CC(=O)c1ccccc1)c(=O)n2C` [Example 30, 7-(2-Butynyl)-3-methyl-1-(2-oxo-2-phenylethyl)-8-(piperazin-1-yl)-3,7-dihydropurine-2,6-dione trifluoroacetate], the response vs control in vivo at 1 mg/kg was -14.3%.

On to `CC#CCn1c(N2CCNCC2)nc2c1c(=O)n(Cc1ccccc1C#N)c(=O)n2C` [Example 39, 2-[7-(2-Butynyl)-3-methyl-2,6-dioxo-8-(piperazin-1-yl)-2,3,6,7-tetrahydropurin-1-ylmethyl]-benzonitrile trifluoroacetate], for which the response vs control in vivo at 1 mg/kg came out at 45.5%.

In the case of `C=Cc1ccccc1-n1c(N2CCNCC2)nc2c1c(=O)[nH]c(=O)n2C` [Example 174, 7-(2-Vinylphenyl)-3-methyl-8-(piperazin-1-yl)-3,7-dihydropurine-2,6-dione], the response vs control in vivo at 1 mg/kg came out at 24.3%.

Staying with this test, now noted: 2 h, 3 mg/kg oral, 30 min before glucose 2 g/kg, AUC0-120, 0.5% MC = 100%, NVP DPP728 10 mg/kg = 0%, lower = better, read-out: Improvement degree of glucose tolerance.
In the case of `CC#CCn1c(N2CCNCC2)nc2c1c(=O)n(C)c(=O)n2C` [Example 10, 7-(2-Butynyl)-1,3-dimethyl-8-(piperazin-1-yl)-3,7-dihydropurine-2,6-dione], the response vs control in vivo at 3 mg/kg was 0.5%.

Turning to `CC#CCn1c(N2CCNCC2)nc2c1c(=O)n(CC(=O)OC)c(=O)n2C` [Example 15, [7-(2-Butynyl)-3-methyl-2,6-dioxo-8-(piperazin-1-yl)-2,3,6,7-tetrahydropurin-1-yl]acetic acid methyl ester trifluoroacetate], the response vs control in vivo at 3 mg/kg is -17.2%.

As to `CC#CCn1c(N2CCNCC2)nc2c1c(=O)n(CCOCC)c(=O)n2C` [Example 18, 7-(2-Butynyl)-1-(2-ethoxyethyl)-3-methyl-8-(piperazin-1-yl)-3,7-dihydropurine-2,6-dione trifluoroacetate], the response vs control in vivo at 3 mg/kg came to 9.5%.

For the molecule `C#CCn1c(=O)c2c(nc(N3CCNCC3)n2CC#CC)n(C)c1=O` [Example 19, 7-(2-Butynyl)-3-methyl-8-(piperazin-1-yl)-1-(2-propynyl)-3,7-dihydropurine-2,6-dione trifluoroacetate], the response vs control in vivo at 3 mg/kg is -13.1%.

With `CC#CCn1c(=O)c2c(nc(N3CCNCC3)n2CC#CC)n(C)c1=O` [Example 20, 1,7-Bis(2-butynyl)-3-methyl-8-(piperazin-1-yl)-3,7-dihydropurine-2,6-dione trifluoroacetate], the response vs control in vivo at 3 mg/kg is 5%.

On to `CC#CCn1c(N2CCNCC2)nc2c1c(=O)n(CC#N)c(=O)n2C` [Example 21, [7-(2-Butynyl)-3-methyl-2,6-dioxo-8-(piperazin-1-yl)-2,3,6,7-tetrahydropurin-1-yl]acetonitrile trifluoroacetate], for which the response vs control in vivo at 3 mg/kg is 4.8%.

For `COc1ccccc1-n1c(N2CCNCC2)nc2c1c(=O)n(C)c(=O)n2C` [Example 123, 7-(2-Methoxyphenyl)-1,3-dimethyl-8-(piperazin-1-yl)-3,7-dihydropurine-2,6-dione trifluoroacetate], the response vs control in vivo at 3 mg/kg came to 17.9%.

As to `C=Cc1ccccc1-n1c(N2CCNCC2)nc2c1c(=O)n(C)c(=O)n2C` [Example 147, 7-(2-Vinylphenyl)-1,3-dimethyl-8-(piperazin-1-yl)-3,7-dihydropurine-2,6-dione trifluoroacetate], the response vs control in vivo at 3 mg/kg turned out to be 13%.

In the case of `Cn1c(=O)[nH]c(=O)c2c1nc(N1CCNCC1)n2-c1ccccc1Cl` [Example 156, 7-(2-Chlorophenyl)-3-methyl-8-(piperazin-1-yl)-3,7-dihydropurine-2,6-dione trifluoroacetate], the response vs control in vivo at 3 mg/kg worked out at 0.9%.

Turning to `COc1ccccc1-n1c(N2CCNCC2)nc2c1c(=O)n(CC#N)c(=O)n2C` [Example 166, [7-(2-Methoxyphenyl)-3-methyl-2,6-dioxo-8-(piperazin-1-yl)-2,3,6,7-tetrahydropurin-1-yl]acetonitrile trifluoroacetate], the response vs control in vivo at 3 mg/kg stood at 16.1%.

With `C=Cc1ccccc1-n1c(N2CCNCC2)nc2c1c(=O)[nH]c(=O)n2C` [Example 174, 7-(2-Vinylphenyl)-3-methyl-8-(piperazin-1-yl)-3,7-dihydropurine-2,6-dione], the response vs control in vivo at 3 mg/kg was -9.1%.

As for `NC(=O)Cn1c(=O)[nH]c(=O)c2c1nc(N1CCNCC1)n2-c1ccccc1Cl` [Example 194, 2-[7-(2-Chlorophenyl)-2,6-dioxo-8-(piperazin-1-yl)-1,2,6,7-tetrahydropurin-3-yl]-acetamide trifluoroacetate], the response vs control in vivo at 3 mg/kg was found to be 9.9%.

For the molecule `CC#CCn1c(N2CCNCC2)nc2c1c(=O)n(C)c(=O)n2CC` [Example 216, 7-(2-Butynyl)-3-ethyl-1-methyl-8-(piperazin-1-yl)-3,7-dihydropurine-2,6-dione trifluoroacetate], the response vs control in vivo at 3 mg/kg was -5%.

As to `CC#CCn1c(N2CCNCC2)nc2c1c(=O)n(C)c(=O)n2Cc1ccccc1` [Example 218, 7-(2-Butynyl)-3-benzyl-1-methyl-8-(piperazin-1-yl)-3,7-dihydropurine-2,6-dione trifluoroacetate], the response vs control in vivo at 3 mg/kg stood at 16.8%.

`CC#CCn1c(N2CCNCC2)nc2c1c(=O)n(C)c(=O)n2CC(=O)OC` [Example 219, [7-(2-Butynyl)-1-methyl-2,6-dioxo-8-(piperazin-1-yl)-1,2,6,7-tetrahydropurin-3-yl]acetic acid methyl ester trifluoroacetate]: the response vs control in vivo at 3 mg/kg was -1.4%.

As to `CC#CCn1c(N2CCNCC2)nc2c1c(=O)n(C)c(=O)n2CC1CCCO1` (centres unmarked) [Example 226, 7-(2-Butynyl)-3-(2-tetrahydrofuranyl)methyl-1-methyl-8-(piperazin-1-yl)-3,7-dihydropurine-2,6-dione trifluoroacetate], the response vs control in vivo at 3 mg/kg was -5.2%.

Consider `CC#CCn1c(N2CCNCC2)nc2c1c(=O)n(C)c(=O)n2C(C(=O)OC)c1ccccc1` (centres unmarked) [Example 240, [7-(2-Butynyl)-1-methyl-2,6-dioxo-8-(piperazin-1-yl)-1,2,6,7-tetrahydropurin-3-yl]phenyl acetic acid methyl ester trifluoroacetate], for which the response vs control in vivo at 3 mg/kg was -2.8%.

As to `CC#CCn1c(N2CCNCC2)nc2c1c(=O)n(C)c(=O)n2CCC` [Example 243, 7-(2-Butynyl)-3-propyl-1-methyl-8-(piperazin-1-yl)-3,7-dihydropurine-2,6-dione trifluoroacetate], the response vs control in vivo at 3 mg/kg was 8.4%.

With `CC#CCn1c(N2CCNCC2)nc2c1c(=O)n(C)c(=O)n2CC(=O)c1ccccc1` [Example 256, 7-(2-Butynyl)-3-(2-oxo-2-phenethyl)-1-methyl-8-(piperazin-1-yl)-3,7-dihydropurine-2,6-dione trifluoroacetate], the response vs control in vivo at 3 mg/kg came out at 2.4%.

As for `CC#CCn1c(N2CCNCC2)nc2c1c(=O)n(C)c(=O)n2C(C)C(=O)OCC` (centres unmarked) [Example 257, 2-[7-(2-Butynyl)-1-methyl-2,6-dioxo-8-(piperazin-1-yl)-1,2,6,7-tetrahydropurin-3-yl]propionic acid ethyl ester trifluoroacetate], the response vs control in vivo at 3 mg/kg came to 10.5%.

Turning to `CC#CCn1c(N2CCNCC2)nc2c1c(=O)n(C)c(=O)n2C1CCOC1=O` (centres unmarked) [Example 263, 7-(2-Butynyl)-3-(2-oxo-tetrahydrofuran-3-yl)-1-methyl-8-(piperazin-1-yl)-3,7-dihydropurine-2,6-dione trifluoroacetate], the response vs control in vivo at 3 mg/kg stood at 16.4%.

Take `CC#CCn1c(N2CCNCC2)nc2c1c(=O)n(C)c(=O)n2CCOCC` [Example 266, 7-(2-Butynyl)-3-(2-ethoxyethyl)-1-methyl-8-(piperazin-1-yl)-3,7-dihydropurine-2,6-dione trifluoroacetate]: the response vs control in vivo at 3 mg/kg is -2.3%.

As for `CC#CCn1c(N2CCNCC2)nc2c1c(=O)n(C)c(=O)n2C(C)C` [Example 270, 7-(2-Butynyl)-3-isopropyl-1-methyl-8-(piperazin-1-yl)-3,7-dihydropurine-2,6-dione trifluoroacetate], the response vs control in vivo at 3 mg/kg worked out at 7.3%.

For `CC#CCn1c(N2CCNCC2)nc2c1c(=O)n(C)c(=O)n2CC(=O)C(C)(C)C` [Example 274, 7-(2-Butynyl)-3-(3,3-dimethyl-2-oxobutyl)-1-methyl-8-(piperazin-1-yl)-3,7-dihydropurine-2,6-dione trifluoroacetate], the response vs control in vivo at 3 mg/kg was found to be 1.9%.
